# Measured values as given in PMC9203742 (Nature Communications, 2022).
# Where “and” joins values, the source holds several entries; their conditions need not be identical. Equal entries are not always repeated.
# Experiments:
# Format in all cases: cell-based
# WT mGlu1 = target: T1, WT mGlu1 (Rattus norvegicus, UniProt P23385); conditions: single-cell values #1-#20; WT
# T1 construct: expressed in transfected cells; host or cells: HEK293
# mGlu1 P58H/N264H mutant = target: T2, mGlu1 P58H/N264H mutant (Rattus norvegicus, UniProt P23385, N264H/P58H); experiment: Fura-2 Ca2+ imaging in HEK293 cells expressing mGlu1 P58H/N264H
# T2 construct: expressed in transfected cells; host or cells: HEK293
# T2 sequence (P23385 19-1199 P58H/N264H): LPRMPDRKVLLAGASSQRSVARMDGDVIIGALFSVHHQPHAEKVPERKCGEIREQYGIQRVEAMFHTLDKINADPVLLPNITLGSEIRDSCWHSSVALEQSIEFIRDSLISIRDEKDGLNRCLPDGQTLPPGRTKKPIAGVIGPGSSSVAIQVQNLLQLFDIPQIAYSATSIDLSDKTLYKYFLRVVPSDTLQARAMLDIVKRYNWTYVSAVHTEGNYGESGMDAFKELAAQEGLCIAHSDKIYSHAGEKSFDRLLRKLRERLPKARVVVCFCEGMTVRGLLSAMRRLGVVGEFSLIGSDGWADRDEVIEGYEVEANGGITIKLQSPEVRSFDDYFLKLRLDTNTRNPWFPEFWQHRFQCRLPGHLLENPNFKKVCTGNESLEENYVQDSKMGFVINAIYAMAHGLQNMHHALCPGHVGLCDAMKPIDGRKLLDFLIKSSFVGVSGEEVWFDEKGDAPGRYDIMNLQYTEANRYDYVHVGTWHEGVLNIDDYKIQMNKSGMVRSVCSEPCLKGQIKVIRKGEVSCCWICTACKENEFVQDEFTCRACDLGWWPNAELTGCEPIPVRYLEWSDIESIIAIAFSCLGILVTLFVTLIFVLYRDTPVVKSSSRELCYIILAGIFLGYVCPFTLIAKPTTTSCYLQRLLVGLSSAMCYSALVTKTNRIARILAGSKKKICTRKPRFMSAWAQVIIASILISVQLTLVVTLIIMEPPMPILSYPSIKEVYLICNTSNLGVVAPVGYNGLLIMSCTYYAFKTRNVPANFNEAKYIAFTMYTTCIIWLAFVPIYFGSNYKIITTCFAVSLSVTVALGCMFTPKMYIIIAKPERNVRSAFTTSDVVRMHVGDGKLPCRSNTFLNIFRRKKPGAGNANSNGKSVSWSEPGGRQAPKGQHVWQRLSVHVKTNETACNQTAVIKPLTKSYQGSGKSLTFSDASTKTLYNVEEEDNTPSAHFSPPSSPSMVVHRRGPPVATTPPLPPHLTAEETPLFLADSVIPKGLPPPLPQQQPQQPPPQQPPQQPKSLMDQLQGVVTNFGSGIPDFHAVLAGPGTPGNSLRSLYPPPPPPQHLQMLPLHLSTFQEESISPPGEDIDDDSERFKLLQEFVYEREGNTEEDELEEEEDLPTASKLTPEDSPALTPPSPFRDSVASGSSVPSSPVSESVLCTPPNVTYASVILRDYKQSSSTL
# mGlu1 A59H/N264H mutant = target: T3, mGlu1 A59H/N264H mutant (Rattus norvegicus, UniProt P23385, A59H/N264H); experiment: Fura-2 Ca2+ imaging in HEK293 cells expressing mGlu1 A59H/N264H
# T3 construct: expressed in transfected cells; host or cells: HEK293
# T3 sequence (P23385 19-1199 A59H/N264H): as the sequence (P23385 19-1199 P58H/N264H) above, with H40P, A41H counted along it
# mGlu1 K61H/N264H mutant = target: T4, mGlu1 K61H/N264H mutant (Rattus norvegicus, UniProt P23385, K61H/N264H); experiment: Fura-2 Ca2+ imaging in HEK293 cells expressing mGlu1 K61H/N264H
# T4 construct: expressed in transfected cells; host or cells: HEK293
# T4 sequence (P23385 19-1199 K61H/N264H): as the sequence (P23385 19-1199 P58H/N264H) above, with H40P, K43H counted along it
# mGlu1(N264H) mutant [1] = target: T5, mGlu1(N264H) mutant (Rattus norvegicus, UniProt P23385, N264H); experiment: Fura-2 Ca2+ imaging in HEK293 cells expressing mGlu1(N264H)
# T5 construct: expressed in transfected cells; host or cells: HEK293
# T5 sequence (P23385 19-1199 N264H): as the sequence (P23385 19-1199 P58H/N264H) above, with H40P counted along it
# mGlu1 P57H/N264H mutant = target: T6, mGlu1 P57H/N264H mutant (Rattus norvegicus, UniProt P23385, N264H/P57H); experiment: Fura-2 Ca2+ imaging in HEK293 cells expressing mGlu1 P57H/N264H; conditions: single-cell values #1-#20; P57H/N264H
# T6 construct: expressed in transfected cells; host or cells: HEK293
# T6 sequence (P23385 19-1199 P57H/N264H): as the sequence (P23385 19-1199 P58H/N264H) above, with P39H, H40P counted along it
# mGlu1 E60H/N264H mutant = target: T7, mGlu1 E60H/N264H mutant (Rattus norvegicus, UniProt P23385, E60H/N264H); experiment: Fura-2 Ca2+ imaging in HEK293 cells expressing mGlu1 E60H/N264H; conditions: single-cell values #1-#20; E60H/N264H
# T7 construct: expressed in transfected cells; host or cells: HEK293
# T7 sequence (P23385 19-1199 E60H/N264H): as the sequence (P23385 19-1199 P58H/N264H) above, with H40P, E42H counted along it
# mGlu1(N264H) mutant [2] = target: T5, mGlu1(N264H) mutant; experiment: Inositol-1-phosphate (IP1) accumulation assay, HEK293 cells expressing mGlu1(N264H)
# [3] = system: HEK293 cells, control vector; experiment: Inositol-1-phosphate (IP1) accumulation assay, HEK293 cells transfected with control vector; conditions: 30 µM Pd(bpy); Vec
# PC12 cells = experiment: NGF-induced neurite outgrowth in differentiated PC12 cells; set-up: neurite outgrowth, individual values #1-#20 (Fig.4b): unit not given here; conditions: for neurite outgrowth, individual values #1-#20 (Fig.4b): differentiated PC12 cells
# Procedure: After incubation for 3 days, PC12 cells bearing neurites were randomly selected, and the length of the longest neurite in each cell was measured using ImageJ package Fiji.
# [4] = HEK293 cells, Fura-2, read-out: EC50, Ca2+ response (Δratio)
# T1 sequence (P23385 19-1199): as the sequence (P23385 19-1199 P58H/N264H) above, with H40P, H246N counted along it
smiles,measurement,setting,value
"O=[N+]([O-])[O-].O=[N+]([O-])[O-].[Pd+2].c1ccc(-c2ccccn2)nc1 [Pd(bpy), Pd(bpy)(NO3)2]","Ca2+ response of individual cells (source data Suppl Fig1), WT",WT mGlu1,-0.002508 and 0.03248 and -0.005946 and 0.001185 and -0.01881 and -0.01405 and 0.05177 and 0.006038 and 0.01295 and 0.02212 and 0.002477 and -0.0007231 and 0.1314 and 0.1045 and 0.02565 and -0.005715 and 0.004592 and -0.01058 and -0.003931 and 0.0524
same,EC50,mGlu1 P58H/N264H mutant; [4],1200 nM
same,"Ca2+ response of individual cells (source data Suppl Fig1), P58H/N264H","mGlu1 P58H/N264H mutant; single-cell values #1-#20, P58H/N264H",1.407 and 1.235 and 0.2781 and 0.4382 and 0.4216 and 0.8249 and 0.694 and 0.5635 and 0.8179 and 0.3484 and 1.211 and 0.7928 and 0.02745 and 0.7691 and 1.112 and 0.5883 and 0.4797 and 0.3836 and 0.0272 and 0.6649
same,EC50,mGlu1 A59H/N264H mutant; [4],3800 nM
same,"Ca2+ response of individual cells (source data Suppl Fig1), A59H/N264H","mGlu1 A59H/N264H mutant; single-cell values #1-#20, A59H/N264H",0.6362 and 0.8074 and 0.5582 and 0.806 and 0.7717 and -0.01028 and 0.5677 and 0.7063 and 0.5602 and 0.7126 and 0.6578 and 1.118 and 1.1499 and 0.77 and 0.5325 and 0.4993 and 0.7176 and 0.6258 and 0.8578 and 0.6525
same,EC50,mGlu1 K61H/N264H mutant; [4],2300 nM
same,"Ca2+ response of individual cells (source data Suppl Fig1), K61H/N264H","mGlu1 K61H/N264H mutant; single-cell values, K61H/N264H",0.2703 and 0.5297 and 0.971 and -0.1576 and 0.5357 and 0.5344 and 1.086 and 1.005 and 0.6767 and 0.2693 and 0.4514 and -0.009392 and 0.06739 and -0.01372
same,Positive allosteric effect: dose-dependency of glutamate-induced responses,mGlu1(N264H) mutant [1]; 3 µM Pd(bpy) in the presence of 10 µM LY367385,unaffected
same,Time to basal level after wash-out by culture medium,"mGlu1(N264H) mutant [1]; 10 µM agonist, n = 15",49.0 ± 6.4 s
same,EC50,mGlu1(N264H) mutant [1]; [4],1600 nM
same,Pd(bpy) off,mGlu1(N264H) mutant [1]; ave of 15 cells,49 s
same,Pd(bpy) on,mGlu1(N264H) mutant [1]; ave of 15 cells,58 s
same,Effect on 100 μM glutamate-induced response,"mGlu1(N264H) mutant [1]; in the presence of LY367385, P = 0.3803",not enhanced
same,"Ca2+ response to Pd complex, individual cells #1-#20 (Fig.4e)",mGlu1(N264H) mutant [1]; single-cell values,0.1987 and 0.007031 and 0.6462 and 0.6597 and 0.6897 and 0.134 and 0.5276 and 0.6019 and 0.1524 and 0.7025 and 0.5861 and 1.131 and 0.7531 and 0.5352 and 0.5053 and 0.4553 and 0.9996 and 0.7233 and 0.7477 and 0.221
same,"Ca2+ response of individual cells (source data Suppl Fig1), P57H/N264H",mGlu1 P57H/N264H mutant,1.496 and 0.4197 and 0.3632 and 0.5618 and 0.3459 and 0.2699 and 0.5435 and -0.005777 and 0.04309 and 0.04215 and 0.5777 and 1 and 0.77 and 0.6187 and 0.5778 and -0.002723 and 0.1859 and 0.08165 and 0.3295 and 0.5272
same,"Ca2+ response of individual cells (source data Suppl Fig1), E60H/N264H",mGlu1 E60H/N264H mutant,-0.015 and 0.1464 and 0.05592 and 0.009469 and 0.1218 and 0.005362 and 1.129 and 0.9384 and 0.8641 and 0.6693 and 0.02784 and 0.0255 and 0.002069 and -0.0022 and -0.0079 and 0.08848 and 0.002385 and -0.01194 and -0.01146 and 0.1752
same,"IP1 accumulation, single experiments","mGlu1(N264H) mutant [2]; 30 µM Pd(bpy), N264H",1.924 and 2.4034 and 1.9034 and 1.783
same,IP3 production evaluated by IP1 accumulation,mGlu1(N264H) mutant [2]; Pd(bpy) 30 µM / 10 μM (method),increased
same,"IP1 accumulation, single experiments",[3],1.069 and 0.9695 and 0.8004
same,Neurite outgrowth,"PC12 cells; 100 μM, 3 days, NGF-differentiated",not affected
same,"neurite outgrowth, individual values #1-#20 (Fig.4b)",PC12 cells; [Pd(bpy)] 1 µM,135.681 and 134.669 and 132.267 and 127.77 and 127.752 and 123.426 and 118.782 and 113.497 and 109.51 and 107.296 and 102.296 and 95.2965 and 92.9706 and 197.35 and 182.054 and 180.267 and 162.995 and 150.48 and 140.539 and 136.598
same,"neurite outgrowth, individual values #1-#20 (Fig.4b)",PC12 cells; [Pd(bpy)] 3 µM,125.971 and 116.953 and 113.154 and 109.598 and 107.841 and 88.6396 and 86.7696 and 85.5685 and 80.0833 and 79.598 and 79.4975 and 76.3259 and 73.1127 and 263.255 and 244.078 and 176.493 and 155.64 and 151.309 and 138.368 and 127.894
same,"neurite outgrowth, individual values #1-#20 (Fig.4b)",PC12 cells; [Pd(bpy)] 10 µM,140.024 and 139.953 and 126.728 and 122.326 and 118.61 and 116.811 and 111.912 and 108.941 and 106.468 and 103.983 and 102.368 and 92.3553 and 91.5269 and 184.551 and 173.426 and 168.711 and 166.853 and 164.196 and 142.426 and 140.681
same,"neurite outgrowth, individual values #1-#20 (Fig.4b)",PC12 cells; [Pd(bpy)] 30 µM,110.627 and 105.752 and 95.8406 and 93.1838 and 90.6274 and 88.9706 and 84.7696 and 80.5685 and 78.2548 and 76.598 and 71.4264 and 67.1127 and 62.669 and 292.527 and 200.326 and 143.51 and 135.196 and 131.456 and 117.853 and 113.811
